In series [1] the test system is VEGF-induced skin permeability. Put plainly: Modified Miles assay with VEGF dose response. It is filed as in vivo, C57 mice. As to conditions: 30 mg/kg/d s.c. for 3 days, intradermal VEGF. The source says:
TNP-470, HPMA copolymer-TNP-470 and angiostatin all inhibited Evan's blue extravasation into A2058 melanoma (P<0.03 versus control), murine Lewis lung carcinoma (P<0.05), MCF-7 breast carcinoma (P<0.04), MDA-MB-231 breast carcinoma (P<0.05) and BXPC3 pancreatic adenocarcinoma (P<0.04) by 40-90% compared to control tumors treated with saline (FIG. 16B). […] In order to test the effect of VEGF secreted from the tumor and the ability of TNP-470 to inhibit the permeability induced by such amount of VEGF, a modified Miles assay using a dose response of VEGF was used. Groups of 8 week old C57 mice were treated with TNP-470 (30 mg/kg/d s.c. for 3 days) or with saline. Then we injected 100 μl 1% Evan's Blue i.v. and after 10 min injected VEGF intradermally at different concentrations. We collected skin punch biopsies and extracted dye with formamide at RT over 5 days and read the extracts at 620 nm (FIG. 16C).

The test system of series [2] is LLC, A2058, MCF-7, MDA-MB-231, BXPC3, U87 tumors. As to conditions: cited from earlier work.
Another series has as its system liver regeneration. Put plainly: Liver regeneration after 2/3 hepatectomy. It is filed as in vivo, C57 black male mice. As to conditions: post-operative day 8. As for the experimental part: C57 black male mice underwent a ⅔ hepatectomy through a midline incision after general anesthesia with isoflourane. Free and conjugated TNP-470 (30 mg/kg) was given s.c. every other day for 8 days beginning on the day of surgery. The liver was harvested on the 8th day, weighed and analyzed for histology.

Series [3] relates to HMVEC-d cells. Put plainly: Cell proliferation assay, HMVEC-d. It is filed as cell-based, Human. As for the experimental part:
HMVEC-d cells were trypsinized (0.05% trypsin) and resuspended (15,000 cells/ml) in EBM-2 supplemented with 5% fetal bovine serum (FBS), plated onto gelatinized 24-well culture plates (0.5 ml/well), and incubated for 24 hours (37° C., 5% CO2). The media was replaced with 0.5 ml of complete media (serum and growth factors; EGM-2 MV), and test substances were applied. Cells were challenged with free or conjugated TNP-470 (0.01 pg/ml to 1 mg/ml TNP-470-equivalent concentration). Control cells were grown with or without growth factors. U87 glioblastoma cells were washed with PBS, trypsinized and resuspended (5,000 cells/ml) in DMEM supplemented with 10% FBS, plated onto 24-well culture plates (0.5 ml/well), and incubated for 24 hours (37° C., 5% CO2). The media was replaced with 0.5 ml of DMEM and 10% FBS, and the test sample applied. Cells were challenged with free or conjugated TNP-470 (0.01 pg/ml to 1 mg/ml TNP-470-equivalent concentration). Control cells were grown with or without 10% FBS. Both cell types were incubated for 72 hours, followed by trypsinization, resuspension in Hematall (Fisher Scientific, Pittsburgh, Pa.), and counted in a Coulter counter.

The subject of the next series is VEGFR-2. Description: VEGFR-2 phosphorylation in HUVEC. As to conditions: 5 ng/ml for 2 hours. It is filed as cell-based, Human. As for the experimental part: Serum-starved (0.1% FBS in EBM-2 media for 24 hours) HMVEC-d or HUVEC were treated with 5 ng/ml TNP-470 and HPMA copolymer-TNP-470 at 37° C. for 2 hours, and then stimulated with 10 ng/ml of VEGF for 5 minutes. Stimulation was stopped by adding cold PBS. […] After washing the beads with precipitation buffer, immunoprecipitates were resuspended in 2× SDS sample buffer for Western blot analysis with an antibody against phosphorylated tyrosine (pTyr).

A further series has as its system skin vessel permeability. Put plainly: Miles vascular permeability assay (Example 3). It is filed as in vivo, SCID mice. As for the experimental part:
SCID mice were injected subcutaneously (s.c.) with TNP-470 or HPMA copolymer-TNP-470 (30 mg/Kg TNP-equiv.) for three days, with Y27632 (50 nM s.c.) for 11 days, with angiostatin (200 mg/kg/day s.c.) for five days, or with saline (250 μl s.c.) for 5 days (n=12) prior to performing the Miles assay ([…] et al., 1996; Miles and Miles, 1952; Streit et al., 2000). Briefly, Evan's blue dye (100 μl of a 1% solution in 0.9% NaCl) was injected intravenously (i.v.) into mice. After 10 minutes, 50 μl of human VEGF165 (1 ng/μl), PAF (100 μM), CNF-1 (100 ng), histamine (1.2 μg/ml) or PBS (50 ul) were injected intradermally into the pre-shaved back skin. After 20 minutes, the animals were euthanized and an area of skin that included the blue spot resulting from leakage of the dye was removed. Evan's blue dye was extracted from the skin by incubation with formamide for 5 days at room temperature, and the absorbance of extracted dye was measured at 620 nm using a spectrophotometer. The unpaired Student t test was used for statistical analysis.

Series [4] has as its system HMVEC-d cells. Put plainly: Cell migration assay (modified Boyden chamber). It is filed as cell-based, Human. Here is the method: The motility response of HMVEC-d cells was assayed using a modified Boyden chamber. Cells were plated in T75-cm^2 flasks at 0.5×10^6 cells per flask and allowed to grow for 48 hours (˜70% confluent) prior to the migration assay. To facilitate cell adhesion, the upper membrane of a transwell (8 μm pore; Costar) was coated with fibronectin (10 μg/ml; Becton Dickinson) overnight at 4° C. Coated membranes were rinsed with PBS and allowed to air dry immediately before use. Cells were detached by trypsinization, treated with trypsinization neutralization solution (Clonetics), and resuspended at a final concentration of […] in serum-free EBM-2 containing 0.1% BSA or free or conjugated TNP470 at equivalent concentrations of 1 ng/ml. Cells (50,000 in 100 μl) were added to the upper chamber of the transwell. Following a 2 hours incubation, EBM-2 or EBM-2 supplemented with VPF/VEGF (5 ng/ml) was added to the lower chamber and cells were allowed to migrate toward the bottom chamber for 4 hours in a humidified incubator containing 5% CO2. […] The number of migrated cells was measured using microscopy (three fields from each membrane were captured using a 10× objective), and images were captured with a CCD camera using SPOT software. Total migration per membrane was quantified from the captured images using Scion Image software (National Institutes of Health). […]

Read-outs that look alike come from different tables or passages of the source.

Take `CO[C@@H]1[C@H](OC(=O)NC(=O)CCl)CC[C@]2(CO2)[C@H]1[C@@]1(C)O[C@@H]1CC=C(C)C` [TNP-470]: in series [1], the “VEGF dose up to which permeability was inhibited” value is “up to 25 ng”. Further, the tumor growth inhibition in series [2] (U87 glioblastoma in mice) is listed as 95%; in series [2] (all tumor models studied), 60-95%. For the same compound, the average liver size with liver regeneration was 0.7 g. Also, the “endothelial cell vs tumor cell inhibitory concentration difference” value in the series on HMVEC-d cells [3] (HMVEC-d vs U87) is listed as 4 orders of magnitude. Besides, the “concentration inhibiting growth factor-induced proliferation without cytotoxicity” value in the series on HMVEC-d cells [3] (HMVEC-d, 72 hours) is no less than 1 pg/mL. Besides, the cytotoxic concentration result in the series on HMVEC-d cells [3] (HMVEC-d, 72 hours) is on record as “higher than 1 μg/ml”. In addition, in the series on VEGFR-2, the “VPF/VEGF-induced phosphorylation of VEGFR-2” value is “significantly reduced”. Moreover, the “CNF-1-induced Evan's blue-albumin extravasation” value with skin vessel permeability (CNF-1 intradermal) is listed as “inhibited”. The “decrease of PAF-induced permeability” value with skin vessel permeability (PAF intradermal) is listed as 75%. The “low-level permeability induced by intradermal injections of PBS” value with skin vessel permeability (PBS intradermal) is reported as “blocked”. Further, the “inhibition of Evan's blue dye extravasation from VPF/VEGF injection sites” value with skin vessel permeability (VPF/VEGF intradermal) is roughly 70%. In the series on skin vessel permeability (histamine intradermal), the “decrease of histamine-induced permeability” value is given as 80%. Besides, the inhibition at 0.001 µg/mL in the series on HMVEC-d cells [4] (Homo sapiens, 1 ng/ml, 2 hours pretreatment, 4 hours migration, read-out: inhibition of chemotactic migration response to VPF/VEGF) amounted to 68%. The “inhibition of basal migration” value in the series with HMVEC-d cells [4] (absence of VPF/VEGF) is 70%.

Values taken from patent publication US20050203013A1, “Methods for inhibiting vascular permeability” (priority 2002, published 2005).
